The subject of data set [1] is HeLa cells stably expressing HaloTag. The data set is described as follows: Chloroalkane penetration assay (CAPA). It counts as in vitro ADME, human. The settings on record: chloroalkane-tagged (ct) peptide; HeLa cells; ct-TAMRA chase. The source says: We first tested the cell permeability of GD20, as peptide-based chemical probes often suffer from poor cell permeability. […] In order to quantitatively evaluate the cell permeability of GD20, we used a recently developed HaloTag-based assay known as a chloroalkane penetration assay (CAPA) (Figure S6I) (Peraro et al., 2018). HeLa cells stably expressing HaloTag localized to the mitochondrial outer membrane were pulsed with chloroalkane-tagged molecules (ct-molecule), washed, chased with chloroalkane-tagged TAMRA fluorophore (ct-TAMRA), and finally analyzed by flow cytometry. A lower ct-TAMRA fluorescent signal indicates competition from a higher cytosolic concentration of ct-molecule. The carboxyl terminus of GD20 (G15) was conjugated with a chloroalkane tag to make ct-GD20 (FIG. 23A).
The cell lines used for CAPA were HeLa cell lines, generated by Chenoweth and co-workers, that stably express HaloTag exclusively in the cytosol (Peraro et al., 2018). Cells were seeded in a 96-well plate the day before the experiment at a density of 4×10^4 cells per well. The day of the experiment the media was aspirated, and 100 μL of cyclic peptide dilutions in DMEM were added to the cells. Plate was incubated for 19.5 h at 37° C. with 5% CO2. […] The cells were then trypsinized, quenched with DMEM, resuspended in PBS, and analyzed using a benchtop flow cytometer (CytoFLEX, Beckman).

Another data set concerns the target T1, GDP-bound Gαs (Homo sapiens, UniProt P63092).
T1 construct: hexahistidine (N, cleaved yes); made in house; host or cells: Escherichia coli BL21(DE3)
The data set is described as follows: Bio-layer interferometry (BLI) binding kinetics. As to the method:
BLI experiments were performed using an OctetRED384 instrument from ForteBio. All experiments were performed at 25° C. using BLI buffer (10 mM HEPES pH 7.4, 150 mM NaCl, 1 mM MgCl2, 0.05% Tween-20, 0.1% DMSO, 0.2 mM GppNHp or GDP). Cyclic peptides were diluted to a series of concentrations in BLI buffer plus 10 μM Biotin. Assays were conducted in Greiner 384well, black, flat bottom polypropylene plates containing the protein solutions, BLI buffer plus 10 μM Biotin for dissociation, and serial dilutions of cyclic peptides to be tested.
Biotinylated proteins were immobilized on Streptavidin biosensors by dipping sensors into plate wells containing protein solutions at a concentration of 100-150 nM. Protein loading is around 2-3 nm. Sensors loaded with proteins were moved and dipped into wells with BLI buffer plus 10 μM Biotin to block unlabeled Streptavidin. Association-dissociation cycles of compounds were started by moving and dipping sensors to cyclic peptides dilutions and BLI buffer plus 10 μM Biotin wells alternatively. Association and dissociation times were carefully determined to ensure full association and dissociation.
Raw kinetic data collected were processed with the Data Analysis software provided by the manufacturer using single reference subtraction in which buffer-only reference was subtracted (For GN13 analysis). Because GD20 analogs have a low level of background binding, we used a double reference subtraction (buffer-only reference and non-protein-loading reference) method to calculate their kinetics values. The resulting data were analyzed based on a 1:1 binding model from which kon and koff values were obtained and then Kd values were calculated.

SMILES strings stand for the structures. Positions of bridges follow the written chain, without caps; N, C: chain ends. Non-standard residues stand in square brackets, D forms with d. Residues, ends and D or L forms follow the SMILES beside them.

As a reminder, the Kd is a measure of binding affinity in units of concentration. Read a low Kd as higher affinity. Usually koff stands for the rate constant with which the complex falls apart. Read a high koff as fast dissociation. What is called kon is the rate constant with which the complex forms. A high value points to fast association. As to `CC[C@H](C)[C@@H]1NC(=O)[C@H](CC(C)C)NC(=O)[C@@H](Cc2ccc(O)cc2)NC(=O)CSC[C@@H](C(=O)NCC(N)=O)NC(=O)[C@@H]2CCCN2C(=O)[C@H](CC(C)C)NC(=O)[C@H](CC(N)=O)NC(=O)[C@H](CC(C)C)NC(=O)[C@H](C)NC(=O)[C@H](Cc2c[nH]c3ccccc23)NC(=O)[C@H](CCC(N)=O)NC(=O)[C@H](CCCNC(=N)N)NC(=O)[C@H](Cc2ccccc2)NC(=O)[C@H]([C@@H](C)O)NC1=O` [GD20-F10L] ({CH2CO}-[dY]LITFRQWALNLPCG-NH2; thioether N-14), in data set [1], the “cell permeability (CAPA)” value is reported as “significantly improved cell penetration”. Further, at GDP-bound Gαs (GDP/Gαs), binding was put at a Kd of 14.5 ± 0.4 nM, the koff was determined as 0.00358 s⁻¹ and the kon was 247000 M⁻¹ s⁻¹.
`CC[C@H](C)[C@@H]1NC(=O)[C@H](C)NC(=O)[C@H](Cc2ccc(O)cc2)NC(=O)[C@H](C(C)C)NC(=O)[C@H](CO)NC(=O)[C@H](CCC(=O)O)NC(=O)[C@H](Cc2ccccc2)NC(=O)[C@@H](Cc2ccc(O)cc2)NC(=O)CSC[C@@H](C(=O)NCC(N)=O)NC(=O)[C@H](CC(C)C)NC(=O)[C@H]([C@@H](C)O)NC(=O)CNC(=O)[C@H](Cc2c[nH]c3ccccc23)NC1=O` [GN13] ({CH2CO}-[dY]FESVYAIWGTLCG-NH2; thioether N-13): the “binding to GDP-bound Gαs” value at GDP-bound Gαs (highest concentration tested) is recorded as “no detectable binding”.

For the origin of these results see patent publication US20240336657A1, “G-ALPHA-S PEPTIDE INHIBITORS AND USES THEREOF” (The Regents of the University of California, priority 2021, published 2024).
